Tests used:
Hsp90α = biological target: T1, Hsp90α (Homo sapiens, UniProt P07900); type: binding; conditions: dot blot, 2 µg blotted on membrane, 20 µg recombinant Hsp90α at 4°C overnight, α-Hsp90α immunodetection
T1 construct: purchased Abcam
Procedure: Two µg of each peptide was blotted (dot blot) directly on PDV nitrocellulose membrane and blocked with ROTI®Block (Carl Roth, Germany). After washing, the membrane was then incubated with 20 μg of recombinant Hsp90α (Abcam)/Lpl1-his protein at 4°C overnight. In case of interaction studies with Hsp90α, α-Hsp90α (produced in mouse, Abcam) was used as the primary antibody and for interaction studies with Lpl1-his, Anti-6X His tag antibody (also produced in mouse, Sigma-Aldrich, Germany) was used. Alkaline phosphatase conjugated goat-α-mouse IgG (Sigma-Aldrich, Germany) served as the secondary antibody. Detection was done using BCIP®/NBT solution (Sigma, Germany). Lpl1-his was isolated and purified as described in our previous paper (Tribelli et al. [2020]).

[1] = system: F-actin levels in HaCaT cells; test: F-actin measurement (ActinGreen 488 fluorescence) in HaCaT cells; type: cell-based, human; conditions: 35 µg/ml peptide (L15 20 µM, L13 30 µM), geldanamycin 5 µM; 1.5 h; ActinGreen 488 fluorescence relative to control
Procedure: (§1) About 5 × 10^4 cells were seeded in black flat bottom 96 well cell culture microplate (Greiner, Germany) and incubated overnight. The cells were then incubated with peptides or geldanamycin for 1.5 h. After incubation, the cells were washed, permeabilised with 0.1% (v/v) Triton X-100 and stained with ActinGreen™ 488 ReadyProbes® (Thermo Fischer, Germany) for 30 min. After the staining, the cells were washed and measure for its fluorescence at Excitation/Emission: 495/518 nm (Luqman et al. [2020]).

[2] = system: S. aureus USA300 internalization by HaCaT cells; test: S. aureus USA300 invasion (internalization) into HaCaT keratinocytes; type: cell-based, human
Procedure: The invasion protocol was adapted from our previous papers (Nguyen et al. [2015], Tribelli et al. [2020]). About 5 × 10^5 Keratinocytes were seeded in a 24 well plate (Greiner, Frickenhausen, Germany) to attain a monolayer of ∼10^6 cells/well. Staphylococcusaureus was grown overnight at 37°C, centrifuged and suspended in invasion medium (DMEM with 10% FBS for HaCaT and K-SFM for NTERT-1 cells). The adherent keratinocytes were […], or 5 µM geldanamycin (Sigma-Aldrich, Germany) or monoclonal antibodies specific against Hsp90α (α‐Hsp90α, Abcam) for 1 h. After 1 h, 100 µl of bacterial suspension was added to each well to attain a MOI (multiplicity of infection) of 30 and incubated with cells for 1.5 h. Subsequently, the extracellular bacteria were killed with treatment of 2.5 μg/ml lysostaphin (Sigma-Aldrich, Germany) for 1.5 h. The cells were then washed, lysed, mechanically detached by scraping, diluted, and enumerated on TSA (Tryptic Soy Agar) plates to quantify the intracellular bacteria.

[3] = system: S. aureus USA300 invasion into N/TERT-1 cells; test: S. aureus USA300 invasion into N/TERT-1 keratinocytes; type: cell-based, human; conditions: pretreatment with L15 20 µM, L13 30 µM, geldanamycin 5 µM or α-Hsp90α antibody
Procedure: The invasion protocol was adapted from our previous papers (Nguyen et al. [2015], Tribelli et al. [2020]). About 5 × 10^5 Keratinocytes were seeded in a 24 well plate (Greiner, Frickenhausen, Germany) to attain a monolayer of ∼10^6 cells/well. Staphylococcusaureus was grown overnight at 37°C, centrifuged and suspended in invasion medium (DMEM with 10% FBS for HaCaT and K-SFM for NTERT-1 cells). The adherent keratinocytes were washed with PBS and supplemented with invasion medium followed by treatment with 20 µM of L15, 30 µM of L13, or 5 µM geldanamycin (Sigma-Aldrich, Germany) or monoclonal antibodies specific against Hsp90α (α‐Hsp90α, Abcam) for 1 h. After 1 h, 100 µl of bacterial suspension was added to each well to attain a MOI (multiplicity of infection) of 30 and incubated with cells for 1.5 h. Subsequently, the extracellular bacteria were killed with treatment of 2.5 μg/ml lysostaphin (Sigma-Aldrich, Germany) for 1.5 h. The cells were then washed, lysed, mechanically detached by scraping, diluted, and enumerated on TSA (Tryptic Soy Agar) plates to quantify the intracellular bacteria.

HaCaT cells = test: MTT cytotoxicity in HaCaT cells; type: cell-based, human; conditions: MTT, 24 h, 1–200 µM
Procedure: (§2) MTT (3-(4,5-dimethylthiazol-2-yl)-2,5-diphenyl tetrazolium bromide) assay was employed to analyze the cytotoxicity of peptides and geldanamycin to the cells. 5 × 10^5 cells were seeded in a 96 flat bottom well plate and incubated for 2.5 or 24 h at 37°C with 5% CO2. The cells were then treated with increasing concentration (0 to 200 µM) of peptides or geldanamycin for 24 h. After the incubation, 10 μl of the MTT labelling reagent is added to each well to attain a final concentration 0.5 mg/ml, followed by 4 h incubation. Metabolically active cells convert the yellow tetrazolium salt to purple formazan crystals, which were solubilized using the solubilization solution (DMSO) and measured for absorbance at λmax/λref–570/690 nm (Saising et al. [2018]).

MONO-MAC-6 (MM6) cells = test: MTT cytotoxicity in MM6 cells; type: cell-based, human; conditions: 24 h, 1–200 µM
Procedure: as §2

[4] = system: phagocytosis by primary human CD14+ monocytes; test: Phagocytosis of S. aureus USA300 by CD14+ monocytes; type: cell-based; conditions: L15 20 µM, L13 30 µM, geldanamycin 5 µM, 60 min preincubation; MOI 30, 90 min; n = 4 donors; SEM
Procedure: Peripheral Blood Mononuclear cells (PBMCs) were isolated by density gradient centrifugation following the previous study (Nguyen et al. [2022]). From the pool of PBMCs, monocytes were isolated by positive selection with anti-human CD14 microbeads (Miltenyi Biotech, Bergisch-Gladbach, Germany) following a previously reported protocol (Nguyen et al. [2022]). The purity was analysed by flow cytometry on a BD Accuri C6 (BD Biosciences, Heidelberg, Germany) with anti-human CD14-FITC, CD45-PE and propidium iodide (BD Biosciences, Heidelberg, Germany) and ranged from 85% to 98%.
For the phagocytosis, 10^6 CD14^+ monocytes were seeded in 1 ml of medium (RPMI supplemented with L-Glutamine and 10% FCS) in a 12 well plate (Greiner, Germany). The cells were incubated with 20 µM of L15, 30 µM of L13, or 5 µM of Geldanamycin for 60 min at 37°C and 5% CO2 before addition of bacteria. For the phagocytosis assay, bacterial cells were resuspended in 100 µl RPMI medium at MOI of 30 and incubated with monocytes for 90 min. The cells were washed once with PBS and 0.5 ml of medium supplemented with 2.5 µg/ml of Lysostaphin was added for 90 min to remove the extracellular bacteria. Then, monocytes were washed twice with PBS and resuspended in 0.5 ml of milliQ dH2O. The cells were scraped, and the lysed solution was transferred into a new 1.5 ml Eppendorf tube for a 5 min sonication (frequency 80, power 100) at room temperature to prevent the bacterial cell clumping by using ultrasonic water bath Elmasonic P (Elma Schmidbauer Gmb, Singen, Germany). About 10 µl fractions of undiluted, 10^−1, 10^−2, and 10^−3 dilutions were inoculated on tryptic soy agar (TSA) plates and incubated overnight at 37°C. The numbers of internalized bacteria were determined based on the manual counting of bacterial colony forming units (cfu) recovered on the agar plates.

[5] = system: Galleria mellonella larvae; test: Toxicity of tested doses to Galleria mellonella larvae
Procedure: (§3) Galleria mellonella larvae, purchased from Feeders & more GmbH, Germany, were sorted based on weight and used within one week. Ten larvae per group with weight average of 500 mg/larvae were injected with bacteria and/or peptides on its last proleg using a BD insulin syringe. The dosage used for the experiment were 60 mg/kg for peptides, 5 mg/kg of geldanamycin and 20 mg/kg for vancomycin. Each larva was injected with 10 µl of L15 (last left proleg) 1 h before administration of 10^6 cfu S. aureus (last right proleg). The larvae were maintained at 37°C and observed for mortality every day over the course of 5 days.

S. aureus Newman = test: Galleria mellonella larvae infection model, S. aureus Newman; type: in vivo
Procedure: as §3

[6] = system: F-actin levels in N/TERT-1 cells; test: F-actin measurement (ActinGreen 488 fluorescence) in N/TERT-1 cells; type: cell-based, human; conditions: L15 20 µM, L13 30 µM, geldanamycin 5 µM; 1.5 h; relative to control
Procedure: as §1

[7] = system: S. aureus USA300 infected PBMCs; test: Cytokine release of S. aureus USA300 infected PBMCs (ELISA); type: cell-based, human; conditions: L15 20 µM, L13 30 µM, geldanamycin 5 µM, 20 h, vs unstimulated infected PBMCs

Molecule: EMKNNKIIL [L17, Lpl1-derived peptide]
- Interaction with Hsp90α (Hsp90α): No
- Relative F-actin level in HaCaT [1]: 1.09 ± 0.20

Molecule: GKGNETKED [L1, Lpl1-derived peptide]
- Interaction with Hsp90α (Hsp90α): No
- Relative F-actin level in HaCaT [1]: 0.95 ± 0.49

Molecule: DEIVKELRSRYNISTEKSPILKMHIDGDLKGSSVGYRKLEI DFSKRENSKLSVIEFLSYKPAKK [L26, Lpl1-derived peptide that increased S. aureus internalization]
- Interaction with Hsp90α (Hsp90α): Yes
- Relative F-actin level in HaCaT [1]: 1.25 ± 0.13
- increase of invasion into HaCaT ([2]; positive control peptides, S. aureus USA300): approximately 1.5 fold

Molecule: COC1=C2C[C@@H](C)C[C@H](OC)[C@H](O)[C@@H](C)/C=C(\C)[C@H](OC(N)=O)[C@@H](OC)/C=C\C=C(/C)C(=O)NC(=CC1=O)C2=O [Geldanamycin, geldanamycin, reference compound]
- invasion of S. aureus USA300 into N/TERT-1 cells [3]: reduced USA300 invasion
- concentration from which viability decreased gradually, HaCaT (HaCaT cells): ≥ 50 µM
- concentration from which viability decreased, MM6 (MONO-MAC-6 (MM6) cells): ≥ 10 µM
- decrease of phagocytosis of S. aureus into CD14+ monocytes [4]: no significant impact
- toxicity of tested doses to larvae ([5]; in vivo): not toxic to larvae
- effect on survival of infected larvae (S. aureus Newman; geldanamycin 5 mg/kg 1 h before infection, strain not restated in the sentence): no or rather a negative effect on survival
- Relative F-actin level in HaCaT [1]: 0.88 ± 0.03
- decrease in uptake/invasion of S. aureus USA300 by HaCaT cells compared to untreated control ([2]; preincubation with L15 20 µM, L13 30 µM, geldanamycin 5 µM or α-Hsp90α antibody, MOI 30): approximately 75%
- relative F-actin content in N/TERT-1 cells [6]: 0.82 ± 0.03
- TNF-alpha production of infected PBMCs ([7]; n = 4): inhibited
- IL-6 production of infected PBMCs ([7]; n = 5): inhibited

Molecule: NKPGEL [L8, Lpl1-derived peptide]
- Interaction with Hsp90α (Hsp90α): No
- Relative F-actin level in HaCaT [1]: 0.96 ± 0.05

Molecule: CN[C@H](CC(C)C)C(=O)N[C@H]1C(=O)N[C@@H](CC(N)=O)C(=O)N[C@H]2C(=O)N[C@H]3C(=O)N[C@H](C(=O)N[C@H](C(=O)O)c4cc(O)cc(O)c4-c4cc3ccc4O)[C@H](O)c3ccc(c(Cl)c3)Oc3cc2cc(c3O[C@@H]2O[C@H](CO)[C@@H](O)[C@H](O)[C@H]2O[C@H]2C[C@](C)(N)[C@H](O)[C@H](C)O2)Oc2ccc(cc2Cl)[C@H]1O [vancomycin, reference compound]
- toxicity of tested doses to larvae ([5]; peptides 60 mg/kg, geldanamycin 5 mg/kg, vancomycin 20 mg/kg): not toxic to larvae
- larvae surviving on day 5, S. aureus Newman (S. aureus Newman; peptides 60 mg/kg, vancomycin 20 mg/kg, injected 1 h before 10^6 cfu, 37°C): 100%

— article PMC10117725, “From an Hsp90 - binding protein to a peptide drug” (microLife, 2022)
